{
  "source": "paper PMC8010149",
  "about": "“A Therapeutic Strategy to Combat HIV-1 Latently Infected Cells With a Combination of Latency-Reversing Agents Containing DAG-Lactone PKC Activators” (Frontiers in Microbiology, 2021)",
  "key": {"A3.01 cells": {"tested_on": "A3.01 cells", "assay": "Active caspase-3 by flow cytometry in A3.01 cells", "type": "cell-based", "conditions": "10 μM, 24 h"}, "[1]": {"assay": "Cytotoxicity of LRAs in U937 cells", "type": "cell-based", "conditions": "human, day 7", "description": "(§1) To determine the cytotoxicity of LRAs, A3.01, and U937 cells (5 × 10^5 cells/ml), which are the parental cells for ACH-2 and U1 cells, respectively, were cultured in the presence or absence of LRAs. After 7 days, cell viability was examined using the Cell Counting Kit-8 assay (Dojindo, Kumamoto, Japan) according to the manufacturer’s instructions. The numbers of living cells after drug treatment were measured and compared to those in untreated cells and are presented as a percentage relative to the control."}, "BALB/c mice": {"tested_on": "BALB/c mice", "assay": "In vivo acute toxicity (24 h) in BALB/c mice", "conditions": "intraperitoneal, 100 μg/kg–10 mg/kg", "text": "BALB/c mice were purchased from Charles River Laboratories Japan, Inc. (Yokohama, Japan). Female mice at 5 weeks of age were used for the experiments. The mice were housed and monitored in our animal research facility according to the institutional guidelines. All experimental procedures and protocols were approved by the Institutional Animal Care and Use Committee of Kumamoto University."}, "U937 cells": {"tested_on": "U937 cells", "assay": "Active caspase-3 by flow cytometry in U937 cells", "type": "cell-based", "conditions": "10 μM, 24 h"}, "J-Lat 10.6 cells": {"tested_on": "J-Lat 10.6 cells", "type": "cell-based, HIV-1", "description": "The reactivation of HIV-1 from latently infected cells was determined by intracellular p24 protein expression and quantification of p24 antigen in the supernatant (ACH-2 and U1 cells), or by changes in intracellular green fluorescent protein (GFP) expression (J-Lat 10.6 cells). […] The supernatant was collected after 48 h. The increase in supernatant p24 antigen levels was measured using a Lumipulse G1200 (FUJIREBIO, Tokyo, Japan). […] Intracellular p24 protein expression and GFP-positive cells were analyzed by flow cytometry.\nDifferences between groups were analyzed for statistical significance using unpaired t-tests. Statistical significance was set at p < 0.05. Statistical analyses were performed using GraphPad Prism version 8 (GraphPad Software, La Jolla, CA, United States). CompuSyn software, based on the quantitative analysis of dose-effect relationships between multiple drugs by Chou and Talalay, was utilized to determine the synergism or antagonism of drug combinations ([Chou and Talalay, 1984]). To confirm synergy, this software calculates combination index (CI) values, which further assist in determining the nature of the combination compared to single drug effects. A CI value <1 indicates synergistic effects."}, "ACH-2 cells": {"tested_on": "ACH-2 cells", "assay": "Active caspase-3 by flow cytometry in ACH-2 cells", "type": "cell-based", "conditions": "10 µM, 24 h", "description": "The amount of intracellular HIV-1 p24 and the active form of caspase-3 were determined by flow cytometry, as previously described ([Matsuda et al., 2015], [2019]). In brief, ACH-2 and U1 cells (2.5 × 10^5 cells/ml) were fixed with 1% paraformaldehyde/PBS for 20 min and permeabilized with Flow Cytometry Perm Buffer (TONBO Biosciences, San Diego, CA, United States). After 5 min of incubation at room temperature, the cells were stained with FITC anti-HIV-1 p24 (24-4) monoclonal antibody (mAb; Santa Cruz Biotechnology, Dallas, TX, United States) or Alexa Fluor 647-conjugated anti-active caspase-3 (C92-605) mAb (BD Pharmingen, San Diego, CA, United States) for 30 min on ice. For T cell activation and exhaustion marker staining, PBMCs from healthy donors separated by the above density gradient centrifugation method were incubated with fixable viability stain Ghost Dye 780 (TONBO Biosciences) for 30 min on ice. […] Next, the cells were analyzed using BD FACSVerse (BD Biosciences). […] The collected data were analyzed using FlowJo software (Tree Star, San Carlos, CA, United States)."}, "[2]": {"assay": "Cytotoxicity of LRAs in A3.01 cells", "type": "cell-based", "conditions": "human, day 7", "description": "as §1"}, "[3]": {"tested_on": "HIV-1 latently infected U1 cells", "assay": "Intracellular HIV-1 p24 by flow cytometry in U1 cells", "type": "cell-based", "conditions": "24 h", "description": "The reactivation of HIV-1 from latently infected cells was determined by intracellular p24 protein expression and quantification of p24 antigen in the supernatant (ACH-2 and U1 cells), or by changes in intracellular green fluorescent protein (GFP) expression (J-Lat 10.6 cells). J-Lat ([Jordan et al., 2003]), ACH-2, or U1 cells (5 × 10^5 cells/ml) were seeded in 96-well plates and incubated with different drug concentrations for 24 h to collect the cells. The supernatant was collected after 48 h. The increase in supernatant p24 antigen levels was measured using a Lumipulse G1200 (FUJIREBIO, Tokyo, Japan). J-Lat cells (5 × 10^5 cells/ml) were placed in 48-well plates and incubated with different drug concentrations for 24 h. Intracellular p24 protein expression and GFP-positive cells were analyzed by flow cytometry.\nThe amount of intracellular HIV-1 p24 and the active form of caspase-3 were determined by flow cytometry, as previously described ([Matsuda et al., 2015], [2019]). In brief, ACH-2 and U1 cells (2.5 × 10^5 cells/ml) were fixed with 1% paraformaldehyde/PBS for 20 min and permeabilized with Flow Cytometry Perm Buffer (TONBO Biosciences, San Diego, CA, United States). After 5 min of incubation at room temperature, the cells were stained with FITC anti-HIV-1 p24 (24-4) monoclonal antibody (mAb; Santa Cruz Biotechnology, Dallas, TX, United States) or Alexa Fluor 647-conjugated anti-active caspase-3 (C92-605) mAb (BD Pharmingen, San Diego, CA, United States) for 30 min on ice. For T cell activation and exhaustion marker staining, PBMCs from healthy donors separated by the above density gradient centrifugation method were incubated with fixable viability stain Ghost Dye 780 (TONBO Biosciences) for 30 min on ice. The cells were then stained with Brilliant Violet 510 anti-human CD3 (UCHT1) mAb (BioLegend), FITC anti-human CD4 (RPA-T4) mAb (TONBO Biosciences), PE-Cy7 anti-human CD8a (RPA-T8) mAb (TONBO Biosciences), PerCP-Cy5.5 anti-human CD38 (HB-7) mAb (BioLegend), PE anti-human CD69 (FN50) mAb (BioLegend), or Alexa Fluor 647 anti-human CD279/PD-1 (EH12.1) mAb (BD Biosciences, San Jose, CA, United States) for 30 min on ice. Next, the cells were analyzed using BD FACSVerse (BD Biosciences). In the analysis, unstained cells were used as a negative control to set the gating for each experiment. The collected data were analyzed using FlowJo software (Tree Star, San Carlos, CA, United States)."}, "[4]": {"tested_on": "PBMCs from healthy donors", "assay": "Acute cytotoxicity in primary cells (fixable viability dye, flow cytometry)", "type": "cell-based", "quoted_text": "For T cell activation and exhaustion marker staining, PBMCs from healthy donors separated by the above density gradient centrifugation method were incubated with fixable viability stain Ghost Dye 780 (TONBO Biosciences) for 30 min on ice. […] Next, the cells were analyzed using BD FACSVerse (BD Biosciences). In the analysis, unstained cells were used as a negative control to set the gating for each experiment. The collected data were analyzed using FlowJo software (Tree Star, San Carlos, CA, United States).\nThe ratio of living cells was calculated for fixable viability dye negative cell populations by flow cytometry. Data are shown as means ± SDs of three independent experiments."}},
  "data": [
    {"smiles": "CCCC(CCC)C(=O)OCC1(CO)CC(=C(C)C)C(=O)O1", "note": "(centres unmarked) [YSE028]", "values": [
      {"measurement": "caspase-3 activation", "setting": "A3.01 cells", "result": 5.81, "unit": "%"},
      {"measurement": "CC50 at 7 days", "setting": "[1]", "result": "> 100", "unit": "µM"},
      {"measurement": "survival", "setting": "BALB/c mice", "result": "all of them survived"},
      {"measurement": "caspase-3 activation", "setting": "U937 cells", "result": 6.35, "unit": "%"},
      {"measurement": "number of GFP+ cells", "setting": "J-Lat 10.6 cells; J-Lat 10.6 cells, 100–400 nM, 24 h", "result": 5.8, "unit": "%"},
      {"measurement": "LRA activity in the presence of 10% mouse serum versus 10% FBS", "setting": "J-Lat 10.6 cells; J-Lat 10.6 cells, 24 h, GFP-positive cells", "result": "drastically decreased"},
      {"measurement": "reactivation after short-term exposure", "setting": "J-Lat 10.6 cells; J-Lat cells, exposure 1 h, wash-out, analysed after 24 h", "result": "successfully reactivated"},
      {"measurement": "caspase-3 activation", "setting": "ACH-2 cells", "result": 17.85, "unit": "%"},
      {"measurement": "CC50 at 7 days", "setting": "[2]", "result": "> 100", "unit": "µM"},
      {"measurement": "intracellular p24-positive live cells (flow cytometry quadrant)", "setting": "[3]; 0.1 µM", "result": 0.239},
      {"measurement": "intracellular p24-positive live cells (flow cytometry quadrant)", "setting": "[3]; 1 µM", "result": 1.13},
      {"measurement": "intracellular p24-positive live cells (flow cytometry quadrant)", "setting": "[3]; 10 µM", "result": 36.3},
      {"measurement": "toxicity of LRAs in combination in primary cells", "setting": "[4]; YSE028 10 μM with JQ1 1 μM, Supplementary Figure S3A", "result": "did not cause increased toxicity in combination"},
      {"measurement": "acute toxicity in primary cells", "setting": "[4]; up to 100 μM, 24 h", "result": "did not show acute toxicity"}
    ]}
  ]
}
